Data: PubChem BioAssay (NCI)
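These data come from cells grown in 96-well plates and exposed to compound for 48 hours at five concentrations. The concentration for 50% growth inhibition is given as GI50. TGI: concentration producing complete growth inhibition.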

Key:
Experiment in all cases: growth of human tumour cells (NCI), 48 h
[1] = tested on: MALME-3M melanoma
[2] = tested on: IGROV1 ovarian
[3] = tested on: SR leukemia
[4] = tested on: OVCAR-4 ovarian
[5] = tested on: SN12C renal
[6] = tested on: HL-60(TB) leukemia
[7] = tested on: SK-MEL-5 melanoma
[8] = tested on: SF-295 CNS
[9] = tested on: MDA-MB-231 breast
[10] = tested on: T-47D breast

Row | Structure (SMILES) | TGI [1] [µM] | TGI [2] [µM] | TGI [3] [µM] | TGI [4] [µM] | TGI [5] [µM] | TGI [6] [µM] | TGI [7] [µM] | TGI [8] [µM] | TGI [9] [µM] | TGI [10] [µM] | GI50 [9] [µM] | GI50 [1] [µM] | GI50 [2] [µM] | GI50 [10] [µM] | GI50 [4] [µM] | GI50 [5] [µM] | GI50 [6] [µM] | GI50 [7] [µM] | GI50 [8] [µM]
1 | CC(C)C(CCOS(=O)(=O)O)CCC(C)[C@H]1[C@@H](O)C(O)C2[C@]3(O)C[C@@H](O)C4(O)C[C@@H](O)CC[C@]4(C)C3CC[C@@]21C (stereo not given in full) | > 100 | > 100 | > 100 | > 100 | > 100 | > 100 | > 100 | > 100 | – | – | – | – | – | – | – | – | – | – | –
2 | CCOc1cc2c(cc1O)C(=O)C[C@@H]1[C@@H]2CC[C@]2(C)[C@@H](O)CC[C@@H]12 | > 9.3 | > 30.3 | – | > 100 | > 100 | – | 7.11 | 9.52 | 61.8 | > 100 | – | – | – | – | – | – | – | – | –
3 | O=C1N[C@H](C(=O)O)[C@@H](c2ccc(OCc3ccccc3)cc2)O1 | > 100 | 78.6 | – | > 100 | > 100 | – | > 100 | 79.6 | 51.4 | > 100 | – | – | – | – | – | – | – | – | –
4 | CCN(/N=C1\CC2C=CCN(C2)C(=O)Cc2c1[nH]c1ccccc21)S(=O)(=O)c1ccc(C)cc1 (stereo not given) | > 100 | > 100 | > 100 | > 100 | > 100 | > 100 | > 100 | > 100 | – | – | – | – | – | – | – | – | – | – | –
5 | Cc1ccc(-c2cc(=O)c(=O)[nH][nH]2)cc1 | – | > 100 | > 100 | > 100 | > 100 | – | > 100 | > 100 | > 100 | > 100 | – | – | – | – | – | – | – | – | –
6 | O=C(CCCn1ccnc1[N+](=O)[O-])NCCn1cnc([N+](=O)[O-])n1 | > 100 | > 100 | > 100 | > 100 | > 100 | > 100 | > 100 | > 100 | – | > 100 | – | – | – | – | – | – | – | – | –
7 | CN(C)NC1=NS(=O)(=O)c2cc3c(=O)n(C)[nH]c3cc2S1 | > 10 | > 10 | > 10 | > 10 | > 10 | > 10 | > 10 | > 10 | – | > 10 | – | – | – | – | – | – | – | – | –
8 | OCC1OC(n2cnc3c(Cl)nc(Nc4ccc(Cl)c(Cl)c4)nc32)CC1O (stereo not given) | 21.2 | 27.8 | – | 41.8 | 23.4 | 16.4 | 16.9 | 19.3 | 23.5 | > 50 | – | – | – | – | – | – | – | – | –
9 | CC1CC(=O)Nc2ccccc2N1C(=O)C1CC1 (stereo not given) | > 100 | > 100 | – | > 100 | > 100 | > 100 | > 100 | > 100 | > 100 | > 100 | – | – | – | – | – | – | – | – | –
10 | COc1ccc(/C=C/C(=O)CCN2CCN(CCC(=O)/C=C/c3ccc(OC)cc3)CC2)cc1 | 35.9 | 25.9 | – | 50 | 26 | > 100 | 32 | 20.8 | 25.2 | – | – | – | – | – | – | – | – | – | –
11 | CC#CC#C/C=C1\C=CC2(OC=CC2O)O1 (stereo not given) | > 23.3 | > 23.3 | > 23.3 | > 23.3 | > 23.3 | > 23.3 | > 23.3 | > 23.3 | – | – | – | – | – | – | – | – | – | – | –
12 | C/C(CCN(C)C)=N\OC(=O)c1ccccc1 | > 100 | > 100 | > 100 | > 100 | > 100 | > 100 | > 100 | > 100 | – | – | – | – | – | – | – | – | – | – | –
13 | CCN(CC)CCSc1c(C(C)=O)c(=O)n(-c2ccccc2)c(=S)n1-c1ccccc1 | 20.7 | 27.2 | – | 29 | 31.6 | 8.71 | > 45.1 | > 100 | 26.9 | 8.36 | – | – | – | – | – | – | – | – | –
14 | Cc1ccc(S(=O)(=O)Nn2c(S)c(C#N)c(-c3ccc(Cl)cc3)c(C#N)c2=O)cc1 | > 100 | 59.4 | > 100 | 43.2 | 69.7 | 65.8 | 42.2 | > 100 | > 100 | – | – | – | – | – | – | – | – | – | –
15 | OC(Cc1cc(CC(O)(C(F)(F)F)C(F)(F)F)nc(CC(O)(C(F)(F)F)C(F)(F)F)c1)(C(F)(F)F)C(F)(F)F | 7.96 | 5.58 | – | > 10 | 7.33 | > 10 | 2.84 | 2.58 | 3.68 | > 10 | – | – | – | – | – | – | – | – | –
16 | C=C1CN2CCc3c([nH]c4ccccc34)C2CC1CC(=O)N(C)C (stereo not given) | > 309 | > 309 | > 309 | – | > 309 | > 309 | > 309 | > 309 | – | – | – | – | – | – | – | – | – | – | –
17 | O=c1c2cc([N+](=O)[O-])ccc2n2n1CCCCC2 | > 100 | > 100 | > 100 | > 100 | > 100 | > 100 | > 100 | > 100 | > 100 | – | – | – | – | – | – | – | – | – | –
18 | CCCCCCc1cc2cc(C(=O)Nc3cccc(F)c3)c(=N)oc2cc1O | 8.75 | 4 | 6.29 | 12.3 | – | 5.33 | 2.85 | 15.9 | – | 7.35 | – | – | – | – | – | – | – | – | –

Row | Structure (SMILES) | TGI [1] [µM] | TGI [2] [µM] | TGI [3] [µM] | TGI [4] [µM] | TGI [5] [µM] | TGI [6] [µM] | TGI [7] [µM] | TGI [8] [µM] | TGI [9] [µM] | TGI [10] [µM] | GI50 [9] [µM] | GI50 [1] [µM] | GI50 [2] [µM] | GI50 [10] [µM] | GI50 [4] [µM] | GI50 [5] [µM] | GI50 [6] [µM] | GI50 [7] [µM] | GI50 [8] [µM]
19 | CCCCCCCCCCCCCCCCCCOc1ccccc1COP(=O)(O)OOCC[N+](C)(C)C | 3.21 | 1.5 | – | 9.92 | 3.17 | 2.19 | 1.5 | 4.32 | 2.26 | 11.2 | 0.932 | 1.16 | 0.738 | 1.79 | 1.33 | 1.1 | 0.846 | 0.813 | 1.23
20 | C=C(C)[C@H]1CC(=O)[C@@]2(C)C[C@H]3O[C@]3(C)CC/C=C(\C)CC[C@H]12 | > 100 | > 100 | – | > 100 | 54.9 | 75.2 | 95.6 | > 100 | > 100 | > 100 | – | – | – | – | – | – | – | – | –
21 | O=C(Nc1ccc(F)cc1)c1cc2c(cc1Cl)Sc1nccn1S2(=O)=O | > 100 | > 100 | – | > 100 | > 100 | – | > 100 | > 100 | > 100 | > 100 | – | – | – | – | – | – | – | – | –
22 | CC1(C)[C@H]2Cc3cc4nc5ccccn5c4cc3[C@@H]1C2 | 25.7 | 43 | – | 26 | 35.8 | 57.2 | 34.3 | 30.8 | 27.1 | 53.7 | – | – | – | – | – | – | – | – | –
23 | Cn1c(=O)c2c(=O)cc(N)[nH]c2n(C)c1=O | > 100 | > 100 | – | > 100 | > 100 | > 100 | > 100 | > 100 | > 100 | > 100 | – | – | – | – | – | – | – | – | –
24 | O=C1CN(c2ccccc2)C(=O)CN1NCNN1CC(=O)N(c2ccccc2)CC1=O | > 100 | > 100 | > 100 | > 100 | > 100 | > 100 | > 100 | > 100 | – | – | – | – | – | – | – | – | – | – | –
25 | CCCCCCCCCCCCCCCC(=O)OC1C(O)C(O)C(O)C(O)C12CO2 (stereo not given) | > 100 | > 100 | – | > 100 | 34.5 | 45.7 | > 100 | > 100 | > 100 | > 100 | – | – | – | – | – | – | – | – | –
26 | C=C(C)COc1cc(NC(=S)OC(C)C)ccc1Cl | – | 31 | – | 28.3 | 30.6 | 35.9 | 38.4 | 29.3 | 29.5 | 26.8 | – | – | – | – | – | – | – | – | –
27 | CC(C)c1c(O[Si](C(C)C)(C(C)C)C(C)C)cc2c(c1O)CC[C@H]1C(C)(C)CCC[C@]21C | > 100 | > 100 | – | > 100 | > 100 | 60.4 | > 100 | > 100 | > 100 | – | – | – | – | – | – | – | – | – | –
28 | COc1ccc(Nc2cc(=O)[nH]c(=O)[nH]2)cc1 | > 100 | > 100 | > 100 | > 100 | > 100 | > 100 | > 100 | > 100 | > 100 | – | – | – | – | – | – | – | – | – | –
29 | CC(N)C(C)c1ccccc1 (stereo not given) | > 100 | > 100 | > 100 | > 100 | > 100 | > 100 | > 100 | > 100 | – | – | – | – | – | – | – | – | – | – | –
30 | COc1cccc(/C=N/[N-]C(N)=O)c1[O-].[Co+2].[OH3+].c1ccncc1 | > 100 | > 100 | – | > 100 | > 100 | > 100 | > 100 | > 100 | – | – | – | – | – | – | – | – | 30.8 | – | –
31 | CCCC(C(=O)OC)C1N=C(NC#N)N(Cc2ccccc2)C1=O (stereo not given) | > 100 | > 100 | > 100 | > 100 | > 100 | > 100 | > 100 | > 100 | – | – | – | – | – | – | – | – | – | – | –
32 | COc1ccc(-c2cc(=O)c3cc(O)ccc3o2)c(OC)c1OC | > 100 | > 100 | 77.6 | > 100 | > 100 | 37.2 | – | 69.2 | – | – | – | – | – | – | – | – | – | – | –
33 | CC(=O)Oc1cc(-c2oc3cc(OC(C)=O)c(C4OC(CO)C(O)C(O)C4O)c(OC(C)=O)c3c(=O)c2O)c(OC(C)=O)cc1O (stereo not given) | > 100 | > 100 | – | > 100 | > 100 | > 100 | > 100 | > 100 | > 100 | – | – | – | – | – | – | – | – | – | –
34 | O=C(OCC(OC(=O)c1ccccc1)C1CC(C2(O)CCCCC2)C(=O)O1)c1ccccc1 (stereo not given) | > 25 | > 25 | > 25 | > 25 | > 25 | – | > 25 | > 25 | > 25 | – | – | – | – | – | – | – | – | – | –
35 | CC1CCc2c(sc3ncnc(N/N=C/c4ccc(Cl)cc4)c23)C1 (stereo not given) | > 100 | > 100 | 55 | – | > 100 | 43.5 | 37.2 | 75.5 | – | – | – | – | – | – | – | – | – | – | –
